According to patent US20250145585A1, “HETEROCYCLIC INHIBITORS OF IGF-1R FOR TREATMENT OF DISEASE” (HORIZON THERAPEUTICS IRELAND DAC, priority 2023, published 2025):

How the values were obtained:
IGF-1R [1] = molecular target: T1, IGF-1R (Homo sapiens, UniProt P08069); assay: Example B-1: IGF-1R Assay (PC3 cells stimulated with IGF1, AlphaLISA on cell lysates); format: cell-based; details: compound two hours, IGF1 200 ng/mL for 30 min, read-out: IC50, Biological Activity against IGF-1R (Table B1)
T1 construct: expressed in transfected cells
T1 sequence (P08069 31-1367): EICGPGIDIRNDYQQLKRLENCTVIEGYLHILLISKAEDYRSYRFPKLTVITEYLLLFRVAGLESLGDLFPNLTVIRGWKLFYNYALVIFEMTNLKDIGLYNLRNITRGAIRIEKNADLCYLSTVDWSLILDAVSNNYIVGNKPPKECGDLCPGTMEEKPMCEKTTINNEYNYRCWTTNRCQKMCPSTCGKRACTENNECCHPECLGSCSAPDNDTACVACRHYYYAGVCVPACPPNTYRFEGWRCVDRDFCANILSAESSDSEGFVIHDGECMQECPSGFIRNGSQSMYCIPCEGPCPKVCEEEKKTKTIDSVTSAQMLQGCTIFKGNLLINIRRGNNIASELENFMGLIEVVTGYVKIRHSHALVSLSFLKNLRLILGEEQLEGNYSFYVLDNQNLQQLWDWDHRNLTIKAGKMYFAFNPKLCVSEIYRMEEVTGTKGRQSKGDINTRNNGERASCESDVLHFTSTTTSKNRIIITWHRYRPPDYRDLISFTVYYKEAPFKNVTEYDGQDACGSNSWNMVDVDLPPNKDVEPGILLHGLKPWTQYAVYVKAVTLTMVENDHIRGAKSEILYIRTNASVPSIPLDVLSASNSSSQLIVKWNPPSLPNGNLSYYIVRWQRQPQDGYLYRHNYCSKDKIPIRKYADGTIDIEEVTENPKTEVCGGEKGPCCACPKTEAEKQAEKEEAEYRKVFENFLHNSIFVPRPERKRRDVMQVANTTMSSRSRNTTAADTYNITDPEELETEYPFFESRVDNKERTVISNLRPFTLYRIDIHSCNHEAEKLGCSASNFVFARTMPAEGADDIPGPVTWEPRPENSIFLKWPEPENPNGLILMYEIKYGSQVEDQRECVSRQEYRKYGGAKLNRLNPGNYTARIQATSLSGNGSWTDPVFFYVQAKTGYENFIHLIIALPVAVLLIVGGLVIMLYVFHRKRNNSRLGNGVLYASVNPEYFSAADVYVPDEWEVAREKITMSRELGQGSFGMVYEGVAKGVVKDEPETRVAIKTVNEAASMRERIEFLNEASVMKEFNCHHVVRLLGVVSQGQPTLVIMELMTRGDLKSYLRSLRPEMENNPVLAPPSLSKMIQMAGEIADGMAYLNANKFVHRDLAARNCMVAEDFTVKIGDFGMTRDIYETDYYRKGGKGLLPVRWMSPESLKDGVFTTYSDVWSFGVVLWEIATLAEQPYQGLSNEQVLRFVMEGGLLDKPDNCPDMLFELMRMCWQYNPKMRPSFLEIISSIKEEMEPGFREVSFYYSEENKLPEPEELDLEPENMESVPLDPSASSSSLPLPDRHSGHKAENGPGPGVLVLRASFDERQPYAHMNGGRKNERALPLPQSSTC
In short: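 IC50 from AlphaLISA read-out of lysed PC3 cells, percent inhibition normalized between vehicle and EC80 controls. Before lysis, cells had 2 h serum-free starvation, 2 h exposure to compound in 3× dilution series, and 30 min IGF1 stimulation at final 200 ng/mL.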

IGF-1R [2] = molecular target: T1, IGF-1R; assay: Example B-2: IGF-1R Assay (PathHunter cell lines, EC80 agonist challenge, chemiluminescent detection); format: cell-based; details: PathHunter cells, compound 60 minutes at 37° C., EC80 agonist 3 hours; read-out: IC50, Biological Activity against IGF-1R (Table B2)
In short: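 Read-out is PathHunter chemiluminescence, developed for 1 h at room temperature after a 3 h room-temperature EC80 agonist challenge that followed 60 min compound pre-treatment at 37° C (1% vehicle). IC50 comes from % inhibition normalized to EC80 and vehicle controls.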

Structure (SMILES): CC1(C)C(=O)N(c2ccc(SC(F)(F)F)cc2)C(=O)N1Cc1ccnc2[nH]ccc12 [Compound 1, 1-((1H-pyrrolo[2,3-b]pyridin-4-yl)methyl)-5,5-dimethyl-3-(4-((trifluoromethyl)thio)phenyl)imidazolidine-2,4-dione]
- IC50 (IGF-1R [1]): ≤ 500 nM
- IC50 (IGF-1R [2]): ≤ 500 nM

Structure (SMILES): CC1(C)C(=O)N(c2ccc(SC(F)(F)F)cc2)C(=O)N1Cc1ccnc2c1CC(=O)N2 [Compound 12, 5,5-dimethyl-1-((2-oxo-2,3-dihydro-1H-pyrrolo[2,3-b]pyridin-4-yl)methyl)-3-(4-((trifluoromethyl)thio)phenyl)imidazolidine-2,4-dione]
- IC50 (IGF-1R [1]): ≤ 500 nM
- IC50 (IGF-1R [2]): ≤ 500 nM

Structure (SMILES): CC1(C)C(=O)N(c2ccc(C3(C(F)(F)F)CC3)cc2)C(=O)N1Cc1ccnc2c1CC(=O)N2 [Compound 13, 5,5-dimethyl-1-((2-oxo-2,3-dihydro-1H-pyrrolo[2,3-b]pyridin-4-yl)methyl)-3-(4-(1-(trifluoromethyl)cyclopropyl)phenyl)imidazolidine-2,4-dione]
- IC50 (IGF-1R [1]): ≤ 500 nM
- IC50 (IGF-1R [2]): ≤ 500 nM

Structure (SMILES): CC1(C)C(=O)N(c2ccc(SC(F)(F)F)cc2)C(=O)N1Cc1ccnc2c1CCN2 [Compound 16, 1-((2,3-dihydro-1H-pyrrolo[2,3-b]pyridin-4-yl)methyl)-5,5-dimethyl-3-(4-((trifluoromethyl)thio)phenyl)imidazolidine-2,4-dione]
- IC50 (IGF-1R [1]): ≤ 500 nM
- IC50 (IGF-1R [2]): ≤ 500 nM

Structure (SMILES): CC1(C)C(=O)N(c2ccc(C3(C(F)(F)F)CC3)cc2)C(=O)N1Cc1ccnc2c1OCCN2 [Compound 17, 1-((3,4-dihydro-2H-pyrido[3,2-b][1,4]oxazin-8-yl)methyl)-5,5-dimethyl-3-(4-(1-(trifluoromethyl)cyclopropyl)phenyl) imidazolidine-2,4-dione]
- IC50 (IGF-1R [1]): ≤ 500 nM
- IC50 (IGF-1R [2]): ≤ 500 nM

Structure (SMILES): CC1(C)C(=O)N(c2ccc(C3(C(F)(F)F)CC3)cc2)C(=O)N1Cc1ccnc2c1CCCN2 [Compound 18, 5,5-dimethyl-1-((5,6,7,8-tetrahydro-1,8-naphthyridin-4-yl)methyl)-3-(4-(1-(trifluoromethyl)cyclopropyl)phenyl) imidazolidine-2,4-dione]
- IC50 (IGF-1R [1]): ≤ 500 nM
- IC50 (IGF-1R [2]): ≤ 500 nM

Structure (SMILES): CC1(C)C(=O)Nc2nccc(CN3C(=O)N(c4ccc(SC(F)(F)F)cc4)C(=O)C3(C)C)c21 [Compound 19, 1-((3,3-dimethyl-2-oxo-2,3-dihydro-1H-pyrrolo[2,3-b]pyridin-4-yl)methyl)-5,5-dimethyl-3-(4-((trifluoromethyl)thio)phenyl)imidazolidine-2,4-dione]
- IC50 (IGF-1R [1]): ≤ 500 nM
- IC50 (IGF-1R [2]): ≤ 500 nM

Structure (SMILES): CC1(C)CNc2nccc(CN3C(=O)N(c4ccc(SC(F)(F)F)cc4)C(=O)C3(C)C)c21 [Compound 20, 1-((3,3-dimethyl-2,3-dihydro-1H-pyrrolo[2,3-b]pyridin-4-yl)methyl)-5,5-dimethyl-3-(4-((trifluoromethyl)thio)phenyl)imidazolidine-2,4-dione]
- IC50 (IGF-1R [1]): ≤ 500 nM
- IC50 (IGF-1R [2]): ≤ 500 nM

Structure (SMILES): CC1(C)Cc2c(CN3C(=O)N(c4ccc(SC(F)(F)F)cc4)C(=O)C3(C)C)ccnc2N1 [Compound 21, 1-((2,2-dimethyl-2,3-dihydro-1H-pyrrolo[2,3-b]pyridin-4-yl)methyl)-5,5-dimethyl-3-(4-((trifluoromethyl)thio)phenyl)imidazolidine-2,4-dione]
- IC50 (IGF-1R [1]): ≤ 500 nM
- IC50 (IGF-1R [2]): ≤ 500 nM

Structure (SMILES): CC1(C)C(=O)N(c2ccc(S(=O)(=O)C(F)(F)F)cc2)C(=O)N1Cc1ccnc2[nH]ccc12 [Compound 22, 1-((1H-pyrrolo[2,3-b]pyridin-4-yl)methyl)-5,5-dimethyl-3-(4-((trifluoromethyl)sulfonyl)phenyl) imidazolidine-2,4-dione]
- IC50 (IGF-1R [1]): ≤ 500 nM
- IC50 (IGF-1R [2]): ≤ 500 nM

Structure (SMILES): CC1(C)C(=O)N(c2ccc(S(=O)(=O)C(F)(F)F)cc2)C(=O)N1Cc1ccnc2c1CC(=O)N2 [Compound 23, 5,5-dimethyl-1-((2-oxo-2,3-dihydro-1H-pyrrolo[2,3-b]pyridin-4-yl)methyl)-3-(4-((trifluoromethyl)sulfonyl)phenyl)imidazolidine-2,4-dione]
- IC50 (IGF-1R [1]): ≤ 500 nM
- IC50 (IGF-1R [2]): ≤ 500 nM

Structure (SMILES): CC1(C)C(=O)N(c2ccc(C3(C(F)(F)F)CC3)cc2)C(=O)N1Cc1ccnc2c1C(F)(F)C(=O)N2 [Compound 24, 1-((3,3-difluoro-2-oxo-2,3-dihydro-1H-pyrrolo[2,3-b]pyridin-4-yl)methyl)-5,5-dimethyl-3-(4-(1-(trifluoromethyl)cyclopropyl)phenyl) imidazolidine-2,4-dione]
- IC50 (IGF-1R [1]): ≤ 500 nM
- IC50 (IGF-1R [2]): ≤ 500 nM

Structure (SMILES): C[C@@H]1COc2c(CN3C(=O)N(c4ccc(C5(C(F)(F)F)CC5)cc4)C(=O)C3(C)C)ccnc2N1 [Compound 25, (R)-5,5-dimethyl-1-((3-methyl-3,4-dihydro-2H-pyrido[3,2-b][1,4]oxazin-8-yl)methyl)-3-(4-(1-(trifluoromethyl)cyclopropyl)phenyl) imidazolidine-2,4-dione]
- IC50 (IGF-1R [1]): ≤ 500 nM
- IC50 (IGF-1R [2]): ≤ 500 nM

Structure (SMILES): CC(C)Nc1cc(CN2C(=O)N(c3ccc(C4(C(F)(F)F)CC4)cc3)C(=O)C2(C)C)ccn1 [Compound 84, 1-((2-(isopropylamino)pyridin-4-yl)methyl)-5,5-dimethyl-3-(4-(1-(trifluoromethyl)cyclopropyl)phenyl)imidazolidine-2,4-dione]
- IC50 (IGF-1R [1]): ≤ 500 nM
- IC50 (IGF-1R [2]): ≤ 500 nM

Structure (SMILES): CC(C)(O)c1ccc(N2C(=O)N(Cc3ccnc(N)c3)C(C)(C)C2=O)cc1 [Compound 88, 1-((2-aminopyridin-4-yl)methyl)-3-(4-(2-hydroxypropan-2-yl)phenyl)-5,5-dimethylimidazolidine-2,4-dione]
- IC50 (IGF-1R [1]): 500 to 2000 nM
- IC50 (IGF-1R [2]): 2000 to 10000 nM

Structure (SMILES): CC1(C)C(=O)N(c2ccc(C3(C(F)(F)F)CC3)cc2)C(=O)N1Cc1ccnc(NC2CC2)c1 [Compound 93, 1-((2-(cyclopropylamino)pyridin-4-yl)methyl)-5,5-dimethyl-3-(4-(1-(trifluoromethyl)cyclopropyl)phenyl)imidazolidine-2,4-dione]
- IC50 (IGF-1R [1]): ≤ 500 nM
- IC50 (IGF-1R [2]): ≤ 500 nM

Structure (SMILES): CC(C)Nc1cc(CN2C(=O)N(c3ccc(C4CC45CC5)cc3)C(=O)C2(C)C)ccn1 (stereo not shown) [Compound 97, 1-((2-(isopropylamino)pyridin-4-yl)methyl)-5,5-dimethyl-3-(4-(spiro[2.2]pentan-1-yl)phenyl)imidazolidine-2,4-dione]
- IC50 (IGF-1R [1]): ≤ 500 nM
- IC50 (IGF-1R [2]): ≤ 500 nM

Structure (SMILES): CC(C)Nc1cc(CN2C(=O)N(c3ccc(C4(C)CC4)cc3)C(=O)C2(C)C)ccn1 [Compound 98, 1-((2-(isopropylamino)pyridin-4-yl)methyl)-5,5-dimethyl-3-(4-(1-methylcyclopropyl)phenyl)imidazolidine-2,4-dione]
- IC50 (IGF-1R [1]): ≤ 500 nM
- IC50 (IGF-1R [2]): ≤ 500 nM

Structure (SMILES): COC1(c2ccc(N3C(=O)N(Cc4ccnc(NC(C)C)c4)C(C)(C)C3=O)cc2)CC1 [Compound 104, 1-((2-(isopropylamino)pyridin-4-yl)methyl)-3-(4-(1-methoxycyclopropyl)phenyl)-5,5-dimethylimidazolidine-2,4-dione]
- IC50 (IGF-1R [1]): ≤ 500 nM
- IC50 (IGF-1R [2]): 500 to 2000 nM

Structure (SMILES): CC1(C)C(=O)N(c2ccc(C3(C(F)(F)F)CC3)cc2)C(=O)N1Cc1ccnc(NC2CCOCC2)c1 [Compound 106, 5,5-dimethyl-1-((2-((tetrahydro-2H-pyran-4-yl)amino)pyridin-4-yl)methyl)-3-(4-(1-(trifluoromethyl)cyclopropyl)phenyl) imidazolidine-2,4-dione]
- IC50 (IGF-1R [1]): ≤ 500 nM
- IC50 (IGF-1R [2]): ≤ 500 nM

Structure (SMILES): CC(C)Nc1cc(CN2C(=O)N(c3ccc(C4(C#N)CCC4)cc3)C(=O)C2(C)C)ccn1 [Compound 107, 1-(4-(3-((2-(isopropylamino)pyridin-4-yl)methyl)-4,4-dimethyl-2,5-dioxoimidazolidin-1-yl)phenyl)cyclobutane-1-carbonitrile]
- IC50 (IGF-1R [1]): ≤ 500 nM
- IC50 (IGF-1R [2]): ≤ 500 nM

Structure (SMILES): CC(C)(C#N)Nc1cc(CN2C(=O)N(c3ccc(C4(C(F)(F)F)CC4)cc3)C(=O)C2(C)C)ccn1 [Compound 109, 2-((4-((5,5-dimethyl-2,4-dioxo-3-(4-(1-(trifluoromethyl)cyclopropyl)phenyl)imidazolidin-1-yl)methyl)pyridin-2-yl)amino)-2-methylpropanenitrile]
- IC50 (IGF-1R [1]): ≤ 500 nM
- IC50 (IGF-1R [2]): ≤ 500 nM

Structure (SMILES): CN1C(=O)C(C)(C)c2ccc(N3C(=O)N(Cc4ccnc(N)c4)C(C)(C)C3=O)cc21 [Compound 110, 1-((2-aminopyridin-4-yl)methyl)-5,5-dimethyl-3-(1,3,3-trimethyl-2-oxoindolin-6-yl)imidazolidine-2,4-dione]
- IC50 (IGF-1R [1]): 500 to 2000 nM
- IC50 (IGF-1R [2]): 2000 to 10000 nM

Structure (SMILES): CC(C)Nc1cc(CN2C(=O)N(c3ccc4c(c3)N(C)C(=O)C4(C)C)C(=O)C2(C)C)ccn1 [Compound 111, 1-((2-(isopropylamino)pyridin-4-yl)methyl)-5,5-dimethyl-3-(1,3,3-trimethyl-2-oxoindolin-6-yl)imidazolidine-2,4-dione]
- IC50 (IGF-1R [1]): 2000 to 10000 nM
- IC50 (IGF-1R [2]): 2000 to 10000 nM

Structure (SMILES): COC[C@@H](C)Nc1cc(CN2C(=O)N(c3ccc(C4(C(F)(F)F)CC4)cc3)C(=O)C2(C)C)ccn1 [Compound 114, (R)-1-((2-((1-methoxypropan-2-yl)amino)pyridin-4-yl)methyl)-5,5-dimethyl-3-(4-(1-(trifluoromethyl)cyclopropyl)phenyl)imidazolidine-2,4-dione]
- IC50 (IGF-1R [1]): ≤ 500 nM
- IC50 (IGF-1R [2]): ≤ 500 nM

Structure (SMILES): CC1(C)C(=O)N(c2ccc(C3(C(F)(F)F)CC3)cc2)C(=O)N1Cc1ccnc(N[C@@H]2CCOC2)c1 [Compound 118, (R)-5,5-dimethyl-1-((2-((tetrahydrofuran-3-yl)amino)pyridin-4-yl)methyl)-3-(4-(1-(trifluoromethyl)cyclopropyl)phenyl) imidazolidine-2,4-dione]
- IC50 (IGF-1R [1]): ≤ 500 nM
- IC50 (IGF-1R [2]): ≤ 500 nM
